In US8658206B2, “Compositions comprising strontium and vitamin D and uses thereof” (Mokwalo SA, priority 2004, dated 2014):

Assays:
[1] = relative to cholecalciferol itself; cited from earlier work
[2] = Determination of solubility velocity by ICP-MS in 0.1 M hydrochloride solution; settings: 0.1 M HCl, 37° C., 84Sr signal by ICP-MS
Procedure: Determination of Solubility Velocity by Inductively Coupled Plasma-Mass Spectrometry (ICP-MS)
The solubility is measures as strontium signals over time using ICP-MS. Using this technique it is possible to follow multiple isotopes of the element, here, ^84Sr, ^86Sr, ^87Sr and ^88Sr.
A hydrochloride solution (0.1 M) was added to the sample and the sample then immediately enters, by means of a peristaltic pump, the atomizer of the ICP-MS apparatus. The pump speed was 4.4 ml/min.
The hydrochloride concentration of 0.1 M equals the concentration of HCl in the stomach. The temperature of the HCl solution was 37° C.
The solubility velocity of the compound is obtained by analysing the slopes of the front curves. The first curve represents the experiment and the second curve the apparatus, thus the difference between the slopes of the two curves are used to calculate the solubility velocity by division with the top value.

solubility velocity in hydrochloride [2] | Compound | times more effective in terms of bioavailability than cholecalciferol [1]
– | C=C1CC[C@H](O)C/C1=C/C=C1\CCC[C@]2(C)[C@@H]([C@H](C)CCCC(C)(C)O)CC[C@@H]12 [25-hydroxycholecalciferol] | five
– | C=C1/C(=C\C=C2/CCC[C@]3(C)[C@@H]([C@H](C)CCCC(C)(C)O)CC[C@@H]23)C[C@@H](O)C[C@@H]1O [1,25 dihydroxycholecalciferol] | ten
very high | [Cl-].[Cl-].[Sr+2] [strontium chloride] | –
